Data: patent US12427144B2, “Compounds and methods for the targeted degradation of androgen receptor” (Arvinas Operations, Inc., priority 2019, dated 2025)

Molecular target: T1, androgen receptor (Homo sapiens, UniProt P10275)
T1 construct: endogenous in cells; host or cells: VCaP
T1 sequence (P10275 1-920): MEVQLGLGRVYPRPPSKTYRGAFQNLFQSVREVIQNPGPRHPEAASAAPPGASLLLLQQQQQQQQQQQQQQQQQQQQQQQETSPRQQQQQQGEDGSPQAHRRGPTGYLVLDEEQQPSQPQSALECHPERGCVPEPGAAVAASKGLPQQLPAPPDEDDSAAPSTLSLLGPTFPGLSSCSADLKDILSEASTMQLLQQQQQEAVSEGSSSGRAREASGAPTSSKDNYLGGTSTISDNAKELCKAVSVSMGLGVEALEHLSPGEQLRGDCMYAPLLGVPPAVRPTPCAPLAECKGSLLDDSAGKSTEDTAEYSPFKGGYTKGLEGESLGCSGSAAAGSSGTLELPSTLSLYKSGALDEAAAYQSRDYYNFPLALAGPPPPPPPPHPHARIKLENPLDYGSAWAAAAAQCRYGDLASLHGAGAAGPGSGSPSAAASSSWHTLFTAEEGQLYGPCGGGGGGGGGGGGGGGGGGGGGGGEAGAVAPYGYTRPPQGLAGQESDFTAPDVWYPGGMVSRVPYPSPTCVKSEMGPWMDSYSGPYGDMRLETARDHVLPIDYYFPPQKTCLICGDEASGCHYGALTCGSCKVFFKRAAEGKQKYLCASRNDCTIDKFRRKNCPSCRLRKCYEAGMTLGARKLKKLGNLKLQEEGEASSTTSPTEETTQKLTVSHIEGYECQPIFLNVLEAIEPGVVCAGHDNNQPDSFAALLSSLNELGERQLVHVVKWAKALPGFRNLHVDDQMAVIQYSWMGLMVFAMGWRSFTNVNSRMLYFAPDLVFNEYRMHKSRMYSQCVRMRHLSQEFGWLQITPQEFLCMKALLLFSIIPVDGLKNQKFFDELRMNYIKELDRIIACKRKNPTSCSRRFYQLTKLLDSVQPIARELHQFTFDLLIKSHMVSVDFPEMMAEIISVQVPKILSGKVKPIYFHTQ
Experiment: AR ELISA assay (PathScan AR Sandwich ELISA), VCaP cells
Type: cell-based
Details: drug treatment 5 hours
Protocol: Compounds were evaluated in this assay in LNCaP and/or VCaP cells utilizing similar protocols. The protocols used with VCaP cells are described below. The androgen receptor ELISA assay was performed using PathScan AR Sandwich ELISA (Cell Signaling Catalog #12850) according to the following assay steps:
VCaP cells were seeded at 40,000 cells/well at a volume of 100 μL/well in VCaP assay medium [Phenol red free RPMI (Gibco Cat #11835-030); 5% Charcoal Stripped (Dextran treated) FBS (Omega Scientific, Cat #FB-04); 1% penstrep (Life Technologies, Gibco Cat #: 10378-016)] in Corning 3904 plates. The cells were incubated for a minimum of 3 days. Cells were dosed with PROTACs diluted in 0.01% DMSO and the drug treatment was allowed for 5 hours.
AR ELISA (Cell Signaling) was performed as follows. 1× Cell Signaling Cell lysis buffer was made (Catalogue #9803; comes with the kit). Media from the treated wells is aspirated, and 100 μL 1× cell lysis buffer/well is added. The cells were placed on a shaker for 10 minutes at 4° C. Twenty microliters of lysate was transferred to 100 μl of Diluent in ELISA plate (0.15 μg/ml-[…]). The lysate-diluent mixture was shaken for 30 minutes at 37° C. Allow mouse AR antibody, anti-mouse antibody, TMB, and STOP solution to come to room temperature. The 1×ELISA buffer included in kit was made and loaded in the reservoir. Media from the plates was discarded, the ELISA plate tapped hard on paper towel, and washed 4×200 μl ELISA wash buffer using a plate washer.
One-hundred (100) […] of mouse AR detection Ab was added; the plates were covered and shaken at 37° C. for 1 hour; media was discarded from the plates, the plates were tapped on a paper towel, washed 4× with 200 μL ELISA wash buffer with a plate washer.
One-hundred (100) […] of anti-mouse—HRP conjugated Ab (comes with the kit) was added; the plates were covered and shaken at 37° C. for 30 minutes; the TMB reagent was allowed to come to room temperature; the media was discard from the plate, the plates were tapped on paper towel, washed 4× with 200 μL of ELISA wash buffer; the plates were tapped the plates on paper towel. One-hundred (100) L of TMB was added and the plates shaken for 2 minutes—while watching for color development. One-hundred (100) L Stop solution was added when light blue color developed. Plates were shaken and read at 450 nm.
Progression of prostate cancer in patients treated with anti-androgen therapy usually involves one of several mechanisms of enhanced Androgen Receptor (AR) signaling, including increased intratumoral androgen synthesis, increased AR expression and AR mutations. PROTACs (PROteolysis TArgeting Chimera), which use bi-functional molecules that simultaneously bind a target of choice and an E3 ligase, cause ubiquitination via induced proximity and degradation of the targeted, pathological protein. As opposed to traditional target inhibition, which is a competitive process, degradation is a progressive process. As such, it is less susceptible to increases in endogenous ligand, target expression, or mutations in the target. Thus, this technology appears to be ideal for addressing the mechanisms of AR resistance in patients with prostate cancer. Data was analyzed and plotted using GraphPad Prism software.

Row | SMILES | DC50 [nM] | Dmax [%]
1 | Cc1cc(O[C@H]2C(C)(C)[C@H](NC(=O)c3cnc(N4CCC(CN(C(C)C)[C@H]5C[C@H](Oc6ccc(C(=O)NC7CCC(=O)NC7=O)cc6)C5)CC4)nc3)C2(C)C)cc(C)c1C#N (stereo partly drawn) [Compound 12, N-((1R,3R)-3-(4-cyano-3,5-dimethylphenoxy)-2,2,4,4-tetramethylcyclobutyl)-2-(4-((((1R,3R)-3-(4-((2,6-dioxopiperidin-3-yl)carbamoyl)phenoxy)cyclobutyl)(isopropyl)amino)methyl)piperidin-1-yl)pyrimidine-5-carboxamide] | < 1 | ≥ 70
2 | CC(C)N(CC1CCN(c2cnc(C(=O)N[C@H]3C(C)(C)[C@H](Oc4ccc(C#N)c(Cl)c4)C3(C)C)cn2)CC1)[C@H]1C[C@H](Oc2ccc(C(=O)NC3CCC(=O)NC3=O)cc2)C1 (stereo partly drawn) [Compound 16, N-((1R,3R)-3-(3-chloro-4-cyanophenoxy)-2,2,4,4-tetramethylcyclobutyl)-5-(4-((((1R,3R)-3-(4-((2,6-dioxopiperidin-3-yl)carbamoyl)phenoxy)cyclobutyl)(isopropyl)amino)methyl)piperidin-1-yl)pyrazine-2-carboxamide] | 1 to 10 | < 50
